In US9347077B2, “Over-expression of a putative oxidoreductase (UcpA) for increasing furfural or 5-hydroxymethylfurfural tolerance” (UNIVERSITY OF FLORIDA RESEARCH FOUNDATION, INCORPORATED, priority 2011, dated 2016):
≈ marks a conversion by molar mass, not a printed value.

Legend:
UcpA = biological target: T1, UcpA (Escherichia coli, UniProt P37440, T153Q); format: biochemical; conditions: lysates of induced LY180 (pLOI4856) vs empty vector control, appropriate cofactors
T1 construct: made in house; host or cells: E. coli LY180 (pLOI4856), IPTG-induced; clarified cell lysate, not purified
Experimental: Cultures were grown overnight to a cell density of approximately 0.66 mg dcw ml^−1 (37° C.) in closed tubes containing 20 ml AM1 (50 g liter^−1 xylose, 0.1 mM IPTG and 12.5 mg liter^−1 ampicillin). Cells were harvested by centrifugation (7,000 g for 5 min, 4° C.), washed twice with 10 ml of cold sodium phosphate buffer (50 mM pH 7.0), resuspended to a cell density of 4.4 mg dcw ml^−1, and disrupted in buffer containing 1 mM dithiothreitol using a Fastprep-24 (MP Biomedicals, Solon, Ohio). After clarification at 13,000 g (10 min, 4° C.), protein concentration was determined using a BCA™ Protein Assay Kit (Thermo Scientific, Rockford, Ill.). Furfural-dependent reduction was measured using NADH and NADPH by monitoring the decrease in absorbance at 340 nm (extinction coefficient of NADH of 6,220 M^−1 cm^−1; extinction coefficient of NADPH of […]). Reaction mixtures contained 200 mM phosphate buffer (pH 7.0), 10 mM furfural, and 0.2 mM NADH or NADPH. NADH-dependent and NADPH-dependent reduction of 5-HMF (10 mM) was measured in a similar fashion.
Additional compounds (ethanol, glycerol, n-butanol, 2-propanol, methanol, acetoin, diacetyl, methyglyoxal, dihydroxyacetone, acetaldehyde, and 1,3-propandiol) were tested as potential substrates for UcpA using appropriate cofactors.

LY180 (pLOI4856) = assay: Furfural toxicity / MIC in tube cultures, ucpA plasmid; format: cell-based, Escherichia coli
Experimental: (§1) Furfural toxicity was measured in tube cultures (13 mm by 100 mm) containing 4 ml of AM1 medium with 50 g liter^−1 xylose, 12.5 mg liter^−1 ampicillin, furfural, and other supplements as indicated (Miller et al., 2009a, b). Cultures were inoculated to an initial density of 22 mg dcw liter^−1. IPTG (0.1 mM) was included for fucO induction. Cell mass was measured at 550 nm after incubation for 48 h (37° C.). For cysteine supplement experiment, the culture condition was the same but included 0.1 mM cysteine as an amendment.
(§2) Derivatives of LY180 containing these plasmids were tested for furfural tolerance with (0.1 mM IPTG) and without IPTG induction using an MIC assay (Miller et al., 2009a; Miller et al., 2010; Wang et al., 2011b).

LY180(pTrc99A) = assay: Furfural toxicity / MIC in tube cultures, vector control; format: cell-based, Escherichia coli
Experimental: as §1, §2

YqhD = YqhD (Escherichia coli, UniProt Q46856); conditions: read-out: Km for NADPH; cited from earlier work
[1] = Escherichia coli, read-out: MIC for 5-HMF

T1 sequence (P37440 whole entry T153Q): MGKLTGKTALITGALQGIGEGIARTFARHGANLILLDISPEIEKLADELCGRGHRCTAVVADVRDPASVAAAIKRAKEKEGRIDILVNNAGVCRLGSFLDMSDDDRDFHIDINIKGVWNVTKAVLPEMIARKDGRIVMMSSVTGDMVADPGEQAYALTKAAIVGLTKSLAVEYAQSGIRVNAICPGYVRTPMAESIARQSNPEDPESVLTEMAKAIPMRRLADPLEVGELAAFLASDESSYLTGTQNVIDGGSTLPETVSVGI
Sequence of YqhD (Q46856 whole entry): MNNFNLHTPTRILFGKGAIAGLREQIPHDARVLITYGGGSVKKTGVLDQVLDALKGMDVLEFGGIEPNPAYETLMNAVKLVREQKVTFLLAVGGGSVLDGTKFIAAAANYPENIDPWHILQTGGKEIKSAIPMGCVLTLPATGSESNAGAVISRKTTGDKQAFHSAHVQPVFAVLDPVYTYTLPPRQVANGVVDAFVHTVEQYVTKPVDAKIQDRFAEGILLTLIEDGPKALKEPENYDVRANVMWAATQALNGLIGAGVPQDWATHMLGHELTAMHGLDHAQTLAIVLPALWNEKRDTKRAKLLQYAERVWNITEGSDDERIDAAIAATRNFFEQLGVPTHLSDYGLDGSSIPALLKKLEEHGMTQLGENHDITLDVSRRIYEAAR

Q: With OCC(O)CO [glycerol] as the molecule, how does the “Metabolism as substrate for UcpA” value (UcpA) read?
A: none appeared to be metabolized

Q: For CC=O [acetaldehyde], which “Metabolism as substrate for UcpA” value (UcpA) is on record?
A: none appeared to be metabolized

Q: Which “Metabolism as substrate for UcpA” value (UcpA) does the source give for CC(=O)C(C)=O [diacetyl] here?
A: none appeared to be metabolized

Q: With methyglyoxal as the molecule, how does the “Metabolism as substrate for UcpA” value (UcpA) read?
A: none appeared to be metabolized

Q: Which “Metabolism as substrate for UcpA” value (UcpA) does the source give for CC(C)O [2-propanol] here?
A: none appeared to be metabolized

Q: Which “Metabolism as substrate for UcpA” value (UcpA) does the source give for OCCCO [1,3-propandiol] here?
A: none appeared to be metabolized

Q: With CC(=O)C(C)O (stereo not drawn) [acetoin] as the molecule, how does the “Metabolism as substrate for UcpA” value (UcpA) read?
A: none appeared to be metabolized

Q: For CCO [ethanol], which “Metabolism as substrate for UcpA” value (UcpA) is on record?
A: none appeared to be metabolized

Q: For CCCCO [n-butanol], which “Metabolism as substrate for UcpA” value (UcpA) is on record?
A: none appeared to be metabolized

Q: What does the source list for N[C@@H](CS)C(=O)O [L-cysteine, reference compound]?
A: Effect of L-cysteine supplement on growth in the presence of furfural (LY180 (pLOI4856); 0.1 mM L-cysteine, 10 mM furfural, ucpA induced): did not alter the growth; Effect of L-cysteine supplement on growth in the presence of furfural (LY180(pTrc99A); 0.1 mM L-cysteine, 10 mM furfural): cell growth was increased

Q: Which Km (YqhD) does the source give for NADPH here?
A: 0.008 mM

Q: With CO [methanol] as the molecule, how does the “Metabolism as substrate for UcpA” value (UcpA) read?
A: none appeared to be metabolized

Q: With O=Cc1ccc(CO)o1 [5-HMF, 5-hydroxymethylfurfural] as the molecule, how does the MIC (LY180 (pLOI4856); [1]) read?
A: 20 mM (≈ 2520 µg/mL)

Q: What about the MIC (LY180(pTrc99A); [1]) of the same molecule?
A: 16 mM (≈ 2020 µg/mL)
